Read-outs that look alike come from different tables or passages of the source. One block for each compound: values may come before it.
Assays:
[1] = Moisture stability at accelerated stress conditions, analysed by PXRD; format: physicochemical; details: open storage, physical form by PXRD
Description: Powder X-ray diffraction was performed with a PANalytical X'Pert PRO diffractometer equipped with a theta/theta coupled goniometer in transmission geometry, Cu-Kalpha1,2 radiation (wavelength 0.15419 nm) with a focusing mirror and a solid state PIXcel detector. Diffractograms were recorded at a tube voltage of 45 kV and a tube current of 40 mA, applying a stepsize of 0.013° 2-Theta with 40 s per step (255 channels) in the angular range of 2° to 40° 2-Theta at ambient conditions.
Moisture stability at accelerated stress conditions was performed in a Memmert constant climate chamber HPP110. 30-50 mg of a given solid composition prepared according to the Examples and Comparative Example herein were exposed to an atmosphere having a relative humidity of 75±0.5% and a temperature of 40±0.5° C. for a period of time as indicated in Tables 1-3 below and analyzed via PXRD as described above.
Brigatinib (1.50 g, e.g. prepared according to the procedures disclosed in WO 2016/065028 A1, part V) was dissolved in 75 mL of acetonitrile/water solution (volume ratio 50:50). The solution was filtered. The homogeneous solution was frozen in a bath of liquid nitrogen and lyophilized at a pressure of from 0.02 to 1.0 mbar, yielding amorphous brigatinib, as confirmed by the PXRD depicted in FIG. 1. The obtained amorphous brigatinib was stored open under accelerated stability conditions (temperature: 40° C., relative humidity: 75%).
Brigatinib (about 100 mg, e.g. prepared according to the procedures disclosed in WO 2016/065028 A1, part V) and the organic polymer (about 100 mg) according to Table 2 were dissolved in 7 to 8 mL of acetonitrile/water solution (volume ratio 50:50). The homogeneous solution was frozen in a bath of liquid nitrogen and lyophilized at a pressure of from 0.02 to 1.0 mbar, yielding an amorphous solid dispersion of brigatinib. The so obtained solid dispersion was open stored under accelerated stability conditions (temperature: 40° C., relative humidity: 75%) for three weeks. […]

[2] = Stability in the amorphous state upon storage (PXRD), general statements; format: physicochemical; details: conditions not given, judged by PXRD
From the text: The brigatinib in the context of the solid dispersion of the present invention is stable in the amorphous state upon storage, as judged by the absence of characteristic PXRD peaks after storage. […] Also in the context of solid dispersions with carriers such as polyvinylpyrrolidon PVP-40000 or Syloid® AL-1FP, amorphous brigatinib converts to crystalline brigatinib upon storage.

[3] = cited from earlier work
[4] = Thermogravimetric mass spectroscopy (TGMS) thermal stability; format: physicochemical; details: heated 25° C. to 250° C. at 10° C./min
Description: Thermogravimetric analysis (TGA) was performed on a Mettler Toledo TGA/DSC 1 instrument. Samples were heated in 100 μl aluminium pans closed with aluminium lids. Lids were automatically pierced at the beginning of the measurement. Samples were initially kept at 25° C. for 2.5 minutes and then heated from room temperature to 250° C. at a rate of 10° C./min. Nitrogen (purge rate 30 ml/min) was used as purge gas.
Mass spectrometry (MS) measurements, coupled with thermogravimetric analysis (TGA), were performed with a Pfeiffer GSD 320 ThermoStar Gas Analysis System. A part of the headspace was evacuated with a capillary placed near the TG sample pan, and mass fragments between 1-100 atomic mass units (amu) were analyzed simultaneously without further separation applying a secondary electron multiplier (SEM) for signal amplification.

[5] = as described in WO 2016/065028 A1

PXRD analysis after storage at 40° C. and 75% RH for 1 week [1]: Form A | PXRD analysis after storage at 40° C. and 75% RH for 1 week ([1]; listed as neat amorphous brigatinib): contained crystalline Form A | PXRD analysis after storage at 40° C. and 75% RH for 3 weeks ([1]; 3 weeks): Form A
Structure (SMILES): COc1cc(N2CCC(N3CCN(C)CC3)CC2)ccc1Nc1ncc(Cl)c(Nc2ccccc2P(C)(C)=O)n1 [Brigatinib, 5-chloro-N4-[2-(dimethylphosphoryl)phenyl]-N2-[2-methoxy-4-[4-(4-methylpiperazin-1-yl)piperidin-1-yl]phenyl]pyrimidine-2,4-diamine]
Stability of the amorphous state upon storage [2]: readily converts to crystalline form A of brigatinib upon storage for as short as one week only

Structure (SMILES): COc1cc(N2CCC(N3CCN(C)CC3)CC2)ccc1Nc1ncc(Cl)c(Nc2ccccc2P(C)(C)=O)n1 [Form B, 5-chloro-N4-[2-(dimethylphosphoryl)phenyl]-N2-[2-methoxy-4-[4-(4-methylpiperazin-1-yl)piperidin-1-yl]phenyl]pyrimidine-2,4-diamine]
Hygroscopicity [3, 5]: hydroscopic | Relative humidity at which the form reversibly converts to hydrated crystalline forms C or D [3, 5]: above 30% | Temperature at which the form transforms to form A ([3]; elevated temperature, WO 2016/065028 A1): above 150 °C

Temperature at which the chemistry of the sample changes (TGMS) [4]: about 100 °C
Structure (SMILES): COc1cc(N2CCC(N3CCN(C)CC3)CC2)ccc1Nc1ncc(Cl)c(Nc2ccccc2P(C)(C)=O)n1 [brigatinib form A, 5-chloro-N4-[2-(dimethylphosphoryl)phenyl]-N2-[2-methoxy-4-[4-(4-methylpiperazin-1-yl)piperidin-1-yl]phenyl]pyrimidine-2,4-diamine]
Hygroscopicity ([3]; as described in WO 2016/065028 A1, listed as Form A): non-hygroscopic
